Test results from patent US20230365959A1, “METHOD FOR IMPROVING THE STABILITY OF A COMPOSITION COMPRISING A FLAVIN-DEPENDENT LACTATE DEHYDROGENASE” (KIKKOMAN CORPORATION, priority 2020, published 2023).

What was measured:
Type in all cases: biochemical
[1] = tested on: lactate dehydrogenase from Pichia kudriavzevii (PkLDH); assay: Chronoamperometry with printed electrode to which PkLDH plus stabilizer was applied and dried (2 mM mPMS/PBS); settings: added compound 50 mM, LDH 1 U dried at 40°C for 60 minutes, +200 mV
Protocol: An enzyme electrode was prepared using the purified PkLDH preparation obtained above and chronoamperometry was carried out. Each of the compounds was added to an enzyme solution in advance and tested whether or not a stabilizing effect of the enzyme during a drying step was exerted. LDH (1 U) solutions comprising compounds in a concentration (0.2% (w/v), 2% (w/v) and 50 mM, respectively) as described in Table 8 were each applied to a screen-printed carbon electrode C110 (manufactured by Metrohm-Dropsens) in an amount of 4 μL and dried at 40° C. for 60 minutes. The same procedure was repeated using an LDH solution without adding any one of the compounds. Each of the electrodes prepared was connected to ALS electrochemical analyzer 814D (manufactured by BAS) using a dedicated connector (DRP-CAC, manufactured by Drop Sense). Subsequently, 100 μL of a 2 mM mPMS/PBS solution was added dropwise to dissolve the dried LDH. The applied voltage was +200 mV (vs Ag/Ag+). An L-sodium lactate solution was added and a response current value 5 seconds after initiation of measurement was recorded. […] Then, an L-sodium lactate solution was added such that the final concentration thereof would be 2 to 10 mM, and a response current value 5 seconds after initiation of measurement was recorded.

[2] = tested on: lactate dehydrogenase from Ogataea parapolymorpha (OgLDH); assay: Thermal stability of OgLDH (residual activity ratio after heat treatment); settings: OgLDH 2 U/mL; compound 300 mM; potassium phosphate buffer pH 7.5; 50°C for 15 minutes
Protocol: (§1) The thermal stability of LDH was evaluated by heating LDH at a given temperature for a given time and comparing the activities before and after heating. […] Further, LDH activity of an LDH solution allowed to stand still on ice without any heat treatment was measured. Based on the activity of this case without any heat treatment taken as 100, the activities of LDH solutions after heat treatment were calculated to determine the residual activity ratio (%). More specifically, the residual activity ratio (%) can be obtained by measuring LDH activity value (a) of a solution before heat treatment or before long-term storage, and LDH activity value (b) of a solution after heat treatment or after long-term storage, and then, calculating ((b)/(a)×100).
(§2) The activity of LDH was determined in accordance with the following procedure. […] Subsequently, a 30 mM PMS solution (50 μL) and an enzyme sample solution (50 μL) were added to the mixture to initiate a reaction. Absorbance at 520 nm was measured at the time of initiation of the reaction and over time and, the degree of reduction (ΔA520) in absorbance per minute as the enzymatic reaction progresses was obtained and LDH activity was calculated in accordance with the following Mathematical formula 2. Here, LDH activity is expressed by an enzyme (LDH) unit, and 1U is defined as the amount of the enzyme that can reduce 1 μmol DCIP per minute at 37° C. in the presence of 10 mM L-lactate.
Stability evaluation tests were conducted to check the improvement effect of malic acid on the stability of various LDHs. […] Each of these diluted enzyme solutions (a mixture of an enzyme and L-malic acid, LDH concentration: 2 U/mL, L-malic acid concentration: 300 mM) was heated in accordance with the thermal-stability evaluation method described in Section 4. More specifically, PkLDH was treated at 55° C., whereas, CaLDH and OgLDH were treated at 50° C. for 15 minutes and then the residual activity ratio (%) was calculated, based on the activity before heating taken as 100. As a comparative example, a sample without adding any L-malic acid in the enzyme diluent was subjected to the same experiment, and the ratio of residual activity in both cases were compared.
(§3) Using the purified OgLDH preparation obtained above, the ratios of remaining activities (%) in the presence and absence of a LDH stabilizer were compared in accordance with the LDH thermal stability evaluation method described in Section 4. In this manner, a stabilizer was searched.
The pH of the LDH solution was adjusted to be 7.5 after each of the compounds was added. Heat treatment was carried out at 50° C. for 15 minutes.

[3] = molecular target: T1, lactate dehydrogenase from Saccharomyces cereviciae (ScLDH) (Saccharomyces cerevisiae, UniProt P00175); assay: Thermal stability of ScLDH (supernatant of crushed bacterial cells); settings: ScLDH 2 U/mL; compound 300 mM; potassium phosphate buffer pH 7.5; 40°C for 15 minutes
T1 construct: made in house; host or cells: Escherichia coli BL21 (pKK223-3-ScLDH); unpurified supernatant of crushed cells
T1 sequence (P00175 86-591): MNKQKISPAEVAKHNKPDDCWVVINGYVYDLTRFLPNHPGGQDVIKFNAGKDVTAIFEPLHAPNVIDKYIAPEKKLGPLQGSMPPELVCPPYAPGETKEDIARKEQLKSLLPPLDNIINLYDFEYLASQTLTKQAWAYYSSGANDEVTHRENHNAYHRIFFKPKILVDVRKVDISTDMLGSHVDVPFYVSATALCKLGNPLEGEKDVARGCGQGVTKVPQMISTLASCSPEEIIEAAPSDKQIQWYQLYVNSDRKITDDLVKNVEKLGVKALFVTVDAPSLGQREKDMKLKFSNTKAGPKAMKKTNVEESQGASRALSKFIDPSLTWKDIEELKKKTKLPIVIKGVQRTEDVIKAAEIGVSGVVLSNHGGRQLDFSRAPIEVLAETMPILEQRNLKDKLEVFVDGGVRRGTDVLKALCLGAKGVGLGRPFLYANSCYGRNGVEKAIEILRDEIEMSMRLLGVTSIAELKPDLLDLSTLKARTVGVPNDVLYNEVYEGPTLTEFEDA
Protocol: as §1, §2
as §3, with “supernatant of a solution comprising crushed ScLDH bacterial cells” for “purified OgLDH preparation”
The pH of the LDH solution was adjusted to be 7.5 after each of the compounds was added. Heat treatment was carried out at 40° C. for 15 minutes.

[4] = tested on: lactate dehydrogenase from Pichia kudriavzevii (PkLDH); assay: Thermal stability of PkLDH in 150 mM HEPES buffer; settings: PkLDH 2 U/mL; 150 mM HEPES buffer pH 7.5; added compound 350 mM; 55°C for 15 minutes
Protocol: as §1
as §2, with “Here, LDH activity is expressed by an enzyme (LDH) unit, and 1U is defined as the amount of the enzyme that can reduce 1 μmol DCIP per minute at 37° C. in the presence of 10 mM L-lactate.” left out

With `O=C([O-])CC(=O)[O-].[Na+].[Na+]` [disodium malonate] the “Current value 5 seconds later (μA), 0 mM lactate” value ([1]; 0 mM lactate) was 0.21 μA, the “Current value 5 seconds later (μA), 2 mM lactate” value ([1]; 2 mM lactate) was 61.8 μA and the “LDH stability improving effect” value [2] was 96%. For the same compound, the “stability improving effect on ScLDH” value [3] was 26% and the “Residual activity ratio (%)” value [4] was 101%.
